{"source": "patent US20040147595A1", "about": "“Biofilm degrading or sloughing compositions and methods” (priority 2001, published 2004)", "key": {"[1]": {"test_system": "V. fisheri lux quorum sensing system (LuxR)", "experiment": "V. fisheri luxR PluxI-gfp(ASV) reporter in PAO-JP2 biofilm", "type": "cell-based, Pseudomonas aeruginosa", "procedure": "(§1) P. aeruginosa biofilms. Biofilms were grown at 30° C. in three-dimensional flow cells (Christensen et al., 1999) with individual channel dimensions of 0.3×4×40 mm supplied With ABt minimal medium supplemented with 2% LB. The flow system was assembled and prepared as described by Christensen et al. (1999). The substratum consisted of a microscope glass coverslip (Knittel 24×50 mm st1, Knittel Glaser, Braunschweig, Germany). Cultures for inoculation of the flow channels were prepared in the following way: P. aeruginosa strains were streaked on LB plates with the appropriate antibiotics and incubated for 24 h at 37° C. From each plate a single colony was used for inoculation of 10 ml ABt with 10% LB. The cultures were grown at, 30° C. for 18 h before they were diluted to an OD600 nm of 0.1 in sterile 0.9% NaCl and used for inoculation of the flow channels. Medium flow was kept at a constant rate of 3 mL/h, equivalent to a mean flow velocity of 0.7 mm/s, using a Watson-Marlow 205S peristaltic pump (Watson-Marlow, Falmouth, England). Biofilms were grown for 24 hours before being shifted to media containing AHL and furanone.\n(§2) Scanning confocal laser microscopy (SCLM). Microscopic inspection and image acquisition were performed an a scanning confocal laser microscope (model TCS4D, Leica Lasertechnik GmbH, Heldelberg, Germany) equipped with a 63×/1.32-0.6 oil objective. The microscope was equipped with a motorized and programmable xy-stage, which was used for monitoring single colonies during the biofilm experiments. At the beginning of each online experiment, the microscope was programmed to track single randomly selected microcolonies; the sensitivity of photo multipliers and the laser intensity were adjusted and thereafter kept constant through out the duration of the experiments. Image scanning was carried out using the 488 nm and 568 nm lines of an Ar/Kr laser for detection of Gfp and Rfp, respectively. Visualization of captured images was performed using the IMARIS software package (Bitplane AG, Zúrich, Switzerland) running on a Silicon Graphics Indigo 2 workstation (Silicon Graphics, Mountain View, Calif. USA).\nRepression of LuxR-activated quorum sensing controlled gene transcription. We speculated that the AHL-antagonstic properties of furanone 56 was specific to the P. aeruginosa las quorum sensing system. To test this, a previously published quorum sensing reporter based on the Vibro fisherf luxR gene and Pluxl-gfp(ASV) (Anderson at al, 2001; Wu et al, 2000) was transferred to PAO-JP2."}, "E. coli MT102": {"test_system": "E. coli MT102", "experiment": "Growth of E. coli MT102", "type": "cell-based, Escherichia coli", "settings": "data not shown", "procedure": "Effect of the furanone in a heterologous background. The direct regulation exerted by the las regulon on lasB expression is well described by numerous studies (Gambello & Iglewski, 1991: Pearson et al., 1994; Pearson et al., 1997). Regulatory complexity is added by the observation that the las quorum sensing circuit itself is subject to global regulators (Albus et al., 1997; Whiteley et al., 2000) and that lasB expression is also controlled by other regulators than LasR (Brumlik & Storey, 1992; Pesci et al., 1999; Schictman et al., 1995). It was, therefore, important to rule out that QSI effect, observed is not caused by furanone interaction with high levels of control. Since there is no AHL-based quorum sensing system present in Escherichia coli (Williams et al., 2000), this bacterium provides an unbiased and well-defined genetic background for studying the direct effects of the furanone on the P. aeruginosa las quorum sensing system. We repeated the above-described experiments using E. coli MT102 as a heterologous host for the reporter system. […] This is likely to be attributed to the increased copy number of the reporter plasmid."}, "[2]": {"test_system": "protein synthesis (araC-PBAD-gfp(ASV))", "experiment": "araC-PBAD-gfp(ASV) expression in biofilm, protein synthesis control", "type": "cell-based, Pseudomonas aeruginosa", "settings": "furanone 56 below 10 μg/ml, 0.2% L-arabinose; data not shown", "procedure": "To determine if the furanone-mediated inhibition of green fluorescence is due to subtle non-specific effects on protein synthesis when the bacteria are growing in a biofilm, we examined expression of green fluorescence in cells harboring the araC-PBAD-gfp(ASV) cassette induced by suboptimal levels of L-arabinose is (0.2%). The cells became green fluorescent within 2 hours after induction."}, "chitinase": {"test_system": "chitinase", "experiment": "Virulence factor production: chitinase activity of PAO-JP2 supernatant", "type": "cell-based, Pseudomonas aeruginosa", "settings": "PAO-JP2, 70 nm OdDHL plus 3 μg/ml and 5 μg/ml furanone 56", "procedure": "The chitinase activity assay was performed as described by the assay manufacturer (Loewe Biochemica, Sauerlach, Germany). Supernatant (560 μl) of cultures prepared as described for the elastase assay was mixed with carboxymethyl-chitin-remazol brilliant violet (200 μl) and sodium phosphate buffer (40 μl, 1 M, pH 7.5). The reaction mixture was incubated for 18 h at 40° C. in a waterbath. The reaction was stopped by addition of HCl (200 μl, 2 N) and kept for 15 min on ice. After centrifugation (10 min at 15000 rpm), the absorbance (OD550 nm) of the supernatant was measured. The relative chitinase activity was calculated as OD550 nm/OD600 nm normalized to 1 ml supernatant."}, "[3]": {"test_system": "P. aeruginosa PAO1 biofilm", "experiment": "Wild type P. aeruginosa PAO1 flowcell biofilm, lasB-gfp(ASV) reporter and Rfp tag, long term", "type": "cell-based, Pseudomonas aeruginosa", "procedure": "as §1, §2\nFuranone 66 represses lasB-expression in wild type P. aeruginosa biofilms. Wild type P. aeruginosa (PAO1) carrying a chromosomally integrated lasB-gfp(ASV) reporter system was grown in flowcells similar to the PAO-JP2-based reporter strain. We focused on studying the effect of furanone 56 in loan term biofilm experiments. In favor of this approach is the observation by Davies et al. (1998) that quorum sensing is involved in maturation of P. aeruginosa biofilms (up to 2 weeks old). In order to support such longterm cultivation, the biofilm medium was modified to contain 0.3 mM glucose instead of 2% LB as a carbon source. In addition, the recently available Red Fluorescent Protein (Rfp) derived from the indopacific sea anemone Discosome was employed to provide a red fluorescent tag on the biofilm bacteria. A mini-Tn5 transposon with the dsred gene under control of the strong constitutive lac promoter was inserted into the chromosome of PAO1 containing the lasB reporter system.\nThe dual-labeled PAO1 strain was inoculated A grown in flowcells in the absence and presence of 5 μg/ml furanone 56. The flowcells were inspected daily for ten days and scanning confocal photomicrographs were captured (FIG. 6 & 7). For clarity, the green and red fluorescent signals from the same area of the biofilm are shown separately. Because the cells constitutively express Rfp, the red color correlates with cell mass, whereas the green fluorescence indicates active transcription of the lasB-gfp(ASV) reporter gene in response to on-going bacterial communication."}}, "note": "“Also recorded” adds a separate entry of the source."}
{"smiles": "O=C1C=C/C(=C/Br)O1", "note": "[furanone 56]", "values": [{"measurement": "green fluorescence of biofilm", "setting": "[1]; 250 nM OHHL and 15 μg/ml furanone 56, 7 hours", "value": "completely disappeared"}, {"measurement": "green fluorescence of biofilm", "setting": "[1]; 250 nM OHHL and 15 μg/ml furanone 56, six hours", "value": "almost completely disappeared"}, {"measurement": "green fluorescence of biofilm", "setting": "[1]; 250 nM OHHL and 15 μg/ml furanone 56, two hours", "value": "significantly less green fluorescent; also recorded: decreased significantly"}, {"measurement": "effect on growth", "setting": "E. coli MT102", "value": "no effect on growth"}, {"measurement": "effect on Gfp-expression", "setting": "[2]", "value": "no effect on Gfp-expression"}, {"measurement": "chitinase activity", "setting": "chitinase", "value": "close to the uninduced level"}, {"measurement": "reporter system in biofilms", "setting": "[3]; 5 μg/ml furanone 56", "value": "partially shut down"}, {"measurement": "complete inhibition of the lasB-gfp(ASV) reporter in all biofilm bacteria", "setting": "[3]; concentrations with no effect on growth (<10 μg/ml)", "value": "not achievable"}, {"measurement": "bacterial signaling (green fluorescence)", "setting": "[3]; day 1, 5 μg/ml furanone 56", "value": "greatly reduced"}, {"measurement": "early biofilm formation", "setting": "[3]; day 1, 5 μg/ml furanone 56", "value": "not or only slightly affected"}, {"measurement": "green fluorescence of biofilm cells", "setting": "[3]; day 7, 5 μg/ml furanone 56", "value": "far less green fluorescence"}, {"measurement": "average biofilm thickness", "setting": "[3]; day 7, 5 μg/ml furanone 56 (untreated 61±6 μm)", "value": "23±4", "unit": "μm"}, {"measurement": "biofilm maturation", "setting": "[3]; wild type biofilm grown in the presence of furanone", "value": "failed to mature"}]}
